Columns and labels:
Septoria nodorum = Septoria nodorum (wheat glume blotch), wheat leaf segment assay, preventive; assay type: in vivo; details: Parastagonospora nodorum, foliar, 96 h; 200 ppm; wheat leaf segments; assessed four days after inoculation; read-out: control of fungal infection, Septoria nodorum
Phytophthora infestans = assay: whole plant or invertebrate; assay type: in vivo; details: in Solanum lycopersicum, foliar, 96 h, read-out: control of fungal infection, Phytophthora infestans
[1] = tested on: Puccinia recondita f.sp. tritici; assay: Puccinia recondita f.sp. tritici (wheat brown rust), wheat leaf segment assay, preventive; assay type: in vivo; details: foliar, 216 h, 200 ppm, wheat leaf segments, assessed nine days after inoculation, read-out: control of fungal infection, Puccinia recondite f.sp. tritici
[2] = tested on: Erysiphe graminis f.sp. tritici; assay: Erysiphe graminis f.sp. tritici (wheat powdery mildew), wheat leaf segment assay, preventive; assay type: in vivo; details: Blumeria graminis, foliar, 96 h; 200 ppm; wheat leaf segments; assessed four days after inoculation; read-out: control of fungal infection, Etysiphe graminis f.sp. tritici
Plasmopara viticola = Plasmopara viticola (downy mildew of grapevine), grapevine leaf disk assay, preventive; assay type: in vivo; details: foliar, 168 h, 200 ppm, grapevine leaf disks, assessed seven days after inoculation, read-out: control of fungal infection, Plasmopara viticola
Septoria tritici = Septoria tritici (leaf blotch), liquid culture growth inhibition in nutrient broth; assay type: cell-based; details: Zymoseptoria tritici; 200 ppm; PDB broth, 24 C; inhibition of growth determined photometrically after 72 hrs; read-out: control of fungal infection, Septoria tritici
Botrytis cinerea = Botrytis cinerea (grey mould), bean leaf disk assay, preventive; assay type: in vivo; details: foliar, 96 h, 200 ppm, bean leaf disks, assessed four days after inoculation, read-out: control of fungal infection, Botrytis cinerea
Pythium ultimum = Pythium ultimum (Damping off), liquid culture growth inhibition in potato dextrose broth; assay type: cell-based; details: Globisporangium ultimum; 20 ppm; potato dextrose broth, 24° C.; inhibition of growth determined photometrically after 48 hours; read-out: control of fungal infection, Pythium ultimum
Fusarium culmorum = Fusarium culmorum (root rot), liquid culture growth inhibition in nutrient broth; assay type: cell-based; details: PDB broth, 24 C, inhibition of growth determined photometrically after 48 hrs, read-out: control of fungal infection, Fusarium culmorum
Protocol: Mycelia fragments or conidia suspensions of a fungus, prepared either freshly from liquid cultures of the fungus or from cryogenic storage, are directly mixed into nutrient broth. DMSO solutions of the test compound (max. 10 mg/ml) is diluted with 0.025% Tween20 by factor 50 and 10 μl of this solution is pipetted into a microtiter plate (96-well format) and the nutrient broth containing the fungal spores/mycelia fragments is then added to give an end concentration of the tested compound. The test plates are incubated at 24° C. and 96% rH in the dark. The inhibition of fungal growth is determined photometrically after 2-6 days and antifungal activity is calculated.
Fusarium culmorum (root rot): Conidia of the fungus from cryogenic storage were directly mixed into nutrient broth (PDB potato dextrose broth). After placing a (DMSO) solution of the test compounds into a microtiter plate (96-well format) the nutrient broth containing the fungal spores was added. The test plates were incubated at 24 C and the inhibition of growth was determined photometrically after 48 hrs.

CCC(Oc1cc(C)c2ncc(I)cc2c1)C(=O)NC(C)(C)C=NOC (centres unmarked) [Compound No. 5, 2-(3-Iodo-8-methyl-quinolin-6-yloxy)-N-(2-methoxyimino-1,1-dimethyl-ethyl)-butyramide]
≥ 60%: pest or weed control at 200 ppm (Septoria nodorum) | pest or weed control at 200 ppm (Phytophthora infestans) | pest or weed control at 200 ppm [1] | pest or weed control at 200 ppm [2] | pest or weed control at 200 ppm (Plasmopara viticola) | inhibition of growth at 200 ppm (Septoria tritici)

C=CCON=CC(C)(C)NC(=O)C(Oc1ccc2ncc(Br)cc2c1)SC (centres unmarked) [Compound No. 13, N-(2-Allyloxyimino-1,1-dimethyl-ethyl)-2-(3-bromo-quinolin-6-yloxy)-2-methylsulfanyl-acetamide]
≥ 60%: pest or weed control at 200 ppm (Phytophthora infestans) | pest or weed control at 200 ppm [2] | pest or weed control at 200 ppm (Plasmopara viticola) | inhibition of growth at 200 ppm (Septoria tritici) | pest or weed control at 200 ppm (Botrytis cinerea) | inhibition of growth at 20 ppm (Pythium ultimum)

CO/N=C(\C)C(C)(C)NC(=O)C(Oc1cc(C)c2ncc(Br)cc2c1)SC (centres unmarked) [Compound No. 32, 2-(3-Bromo-8-methyl-quinolin-6-yloxy)-N-{2-[(E)-methoxyimino]-1,1-dimethyl-propyl}-2-methylsulfanyl-acetamide]
≥ 60%: pest or weed control at 200 ppm (Phytophthora infestans) | pest or weed control at 200 ppm [1] | inhibition of growth at 200 ppm (Fusarium culmorum) | pest or weed control at 200 ppm [2] | pest or weed control at 200 ppm (Plasmopara viticola) | inhibition of growth at 20 ppm (Pythium ultimum)

CCC(Oc1ccc2ncc(I)cc2c1)C(=O)NC(C)(C=NOC)COC (centres unmarked) [Compound No. 68, 2-(3-Iodo-quinolin-6-yloxy)-N-(2-methoxyimino-1-methoxymethyl-1-methyl-ethyl]-butyramide]
≥ 60%: pest or weed control at 200 ppm (Septoria nodorum) | pest or weed control at 200 ppm (Phytophthora infestans) | pest or weed control at 200 ppm [2] | pest or weed control at 200 ppm (Plasmopara viticola) | inhibition of growth at 200 ppm (Septoria tritici) | pest or weed control at 200 ppm (Botrytis cinerea)

CON=CC(C)(C)NC(=O)C(OC)Oc1ccc2ncc(C#C[Si](C)(C)C)cc2c1 (centres unmarked) [Compound No. 74, 2-Methoxy-N-(2-methoxyimino-1,1-dimethyl-ethyl)-2-(3-trimethylsilanylethynyl-quinolin-6-yloxy)-acetamide]
≥ 60%: pest or weed control at 200 ppm (Phytophthora infestans) | pest or weed control at 200 ppm [2] | pest or weed control at 200 ppm (Plasmopara viticola) | inhibition of growth at 200 ppm (Septoria tritici) | pest or weed control at 200 ppm (Botrytis cinerea) | inhibition of growth at 20 ppm (Pythium ultimum)

CON=CC(C)(C)NC(=O)C(OC)Oc1cc(C)c2ncc(C#C[Si](C)(C)C)cc2c1 (centres unmarked) [Compound No. 75, 2-Methoxy-N-(2-methoxyimino-1,1-dimethyl-ethyl)-2-(8-methyl-3-trimethylsilanylethynyl-quinolin-6-yloxy)-acetamide]
≥ 60%: pest or weed control at 200 ppm (Septoria nodorum) | pest or weed control at 200 ppm (Phytophthora infestans) | pest or weed control at 200 ppm [2] | pest or weed control at 200 ppm (Plasmopara viticola) | pest or weed control at 200 ppm (Botrytis cinerea)

CON=CC(C)(C)NC(=O)C(Oc1cc(C)c2ccc(Br)cc2c1)SC (centres unmarked) [Compound No. 85, 2-(7-bromo-4-methyl-naphthalen-2-yloxy)-N-(2-methoxyimino-1,1-dimethyl-ethyl)-2-methylsulfanyl-acetamide]
≥ 60%: pest or weed control at 200 ppm [2] | inhibition of growth at 200 ppm (Septoria tritici) | pest or weed control at 200 ppm (Botrytis cinerea)

CON=CC(C)(C)NC(=O)C(Oc1cc(C)c2scnc2c1)SC (centres unmarked) [Compound No. 87, N-(2-methoxyimino-1,1-dimethyl-ethyl)-2-(7-methyl-benzothiazol-5-yloxy)-2-methylsulfanyl-acetamide]
≥ 60%: pest or weed control at 200 ppm (Botrytis cinerea) | inhibition of growth at 20 ppm (Pythium ultimum)

CON=CC(C)(C)NC(=O)C(Oc1cc(C)c2ncsc2c1)SC (centres unmarked) [Compound No. 89, N-(2-Methoxyimino-1,1-dimethyl-ethyl)-2-(4-methyl-benzothiazol-6-yloxy)-2-methylsulfanyl-acetamide]
≥ 60%: pest or weed control at 200 ppm (Phytophthora infestans) | pest or weed control at 200 ppm [2] | pest or weed control at 200 ppm (Plasmopara viticola) | inhibition of growth at 200 ppm (Septoria tritici) | pest or weed control at 200 ppm (Botrytis cinerea)

CON=CCNC(=O)C(Oc1ccc2ncc(Br)cc2c1)SC (centres unmarked) [Compound No. 93, 2-(3-Bromo-quinolin-6-yloxy)-N-(2-methoxyimino-ethyl)-2-methylsulfanyl-acetamide]
≥ 60%: pest or weed control at 200 ppm (Septoria nodorum) | pest or weed control at 200 ppm (Phytophthora infestans) | pest or weed control at 200 ppm [1] | inhibition of growth at 200 ppm (Fusarium culmorum) | pest or weed control at 200 ppm [2] | pest or weed control at 200 ppm (Plasmopara viticola) | inhibition of growth at 200 ppm (Septoria tritici)

CSC(Oc1cc(C)c2ncc(I)cc2c1)C(=O)NC(C)(C)CC=NOC1CCCCO1 (centres unmarked) [Compound No. 96, N-[1,1-Dimethyl-3-(tetrahydro-pyran-2-yloxyimino)-propyl]-2-(3-iodo-8-methyl-quinolin-6-yloxy)-2-methylsulfanyl-acetamide]
≥ 60%: pest or weed control at 200 ppm (Plasmopara viticola) | inhibition of growth at 200 ppm (Septoria tritici) | pest or weed control at 200 ppm (Botrytis cinerea) | inhibition of growth at 20 ppm (Pythium ultimum)

C#Cc1cnc2c(C)cc(OC(CC)C(=O)NC(C)(C)C=NOCC=C)cc2c1 (centres unmarked) [Compound No. 138, N-(2-Allyloxyimino-1,1-dimethyl-ethyl)-2-(3-ethynyl-8-methyl-quinolin-6-yloxy)-butyramide]
≥ 60%: pest or weed control at 200 ppm (Septoria nodorum) | pest or weed control at 200 ppm (Phytophthora infestans) | pest or weed control at 200 ppm [1] | pest or weed control at 200 ppm [2] | pest or weed control at 200 ppm (Plasmopara viticola) | inhibition of growth at 200 ppm (Septoria tritici) | inhibition of growth at 20 ppm (Pythium ultimum)

CC#CCON=CC(C)(C)NC(=O)C(Oc1ccc2ncc(Br)cc2c1)SC (centres unmarked) [Compound No. 141, 2-(3-Bromo-quinolin-6-yloxy)-N-(2-but-2-ynyloxyimino-1,1-dimethyl-ethyl)-2-methylsulfanyl-acetamide]
≥ 60%: pest or weed control at 200 ppm (Phytophthora infestans) | pest or weed control at 200 ppm [1] | inhibition of growth at 200 ppm (Fusarium culmorum) | pest or weed control at 200 ppm [2] | pest or weed control at 200 ppm (Plasmopara viticola) | inhibition of growth at 200 ppm (Septoria tritici) | inhibition of growth at 20 ppm (Pythium ultimum)

CSC(Oc1ccc2ncc(Br)cc2c1)C(=O)NC(C)(C)C=NOCCF (centres unmarked) [Compound No. 142, 2-(3-Bromo-quinolin-6-yloxy)-N-[2-(2-fluoro-ethoxyimino)-1,1-dimethyl-ethyl]-2-methylsulfanyl-acetamide]
≥ 60%: pest or weed control at 200 ppm (Phytophthora infestans) | pest or weed control at 200 ppm [1] | inhibition of growth at 200 ppm (Fusarium culmorum) | pest or weed control at 200 ppm [2] | pest or weed control at 200 ppm (Plasmopara viticola) | inhibition of growth at 200 ppm (Septoria tritici) | inhibition of growth at 20 ppm (Pythium ultimum)

CCC(Oc1ccc2ncc(Br)cc2c1)C(=O)NC(C)(C)C=NOC (centres unmarked) [Compound No. 144, 2-(3-Bromo-quinolin-6-yloxy)-N-(2-methoxyimino-1,1-dimethyl-ethyl)-butyramide]
≥ 60%: pest or weed control at 200 ppm (Phytophthora infestans) | pest or weed control at 200 ppm [1] | inhibition of growth at 200 ppm (Fusarium culmorum) | pest or weed control at 200 ppm [2] | pest or weed control at 200 ppm (Plasmopara viticola) | inhibition of growth at 200 ppm (Septoria tritici)

CCC(Oc1cc(C)c2ncc(Br)cc2c1)C(=O)NC(C)(C)C=NOC (centres unmarked) [Compound No. 145, 2-(3-Bromo-8-methyl-quinolin-6-yloxy)-N-(2-methoxyimino-1,1-dimethyl-ethyl)-butyramide]
≥ 60%: pest or weed control at 200 ppm (Septoria nodorum) | pest or weed control at 200 ppm (Phytophthora infestans) | pest or weed control at 200 ppm [2] | pest or weed control at 200 ppm (Plasmopara viticola) | inhibition of growth at 200 ppm (Septoria tritici) | pest or weed control at 200 ppm (Botrytis cinerea)

— patent US8507509B2, “Saturated and insaturated bi- or tricyclic aryloxyacetamine derivatives and their use as fungicides” (Syngenta Crop Protection LLC, priority 2007, dated 2013)
